The source of these data is patent US20030162723A1, “Supplementation of equine feedstuffs” (priority 2000, published 2003).

Entries after “also recorded” stand apart in the source; their conditions may differ.

Details of series [1]: species or system horse. Conditions: in vivo. The source says: Six stabled Thoroughbred horses (2 mares, 4 geldings; aged 5-9 years), were maintained on hay and mixed feed for a minimum of two weeks before the start of the study. Horses were fed at 8 am and 4 pm. The mixed feed was a mix of cereal sources, fibre sources and protein sources with added vitamins and minerals. The ingredients included, in descending order of inclusion, enriched fibre pellets, rolled oats, soya hull pellets, flaked maise, flaked barley, flaked peas, molgio, full fat soya, vegetable oils, lucerne (alfalfa), calcium carbonate, dicalcium phosphate, salt, lysine, magnesium phosphate and zinc sulphate. Analysis: oil 8%, protein 12%, fibre 11%, ash 7.5%.
Within each part of the study, the order of the feeds was randomised between horses using a Latin Square design. The study comprised four parts:
Part 1: Acute plasma glutamine response to a single feed of molassed sugar beet (mSB), naked oats (nO) and mixed feed (M). […] Total plasma proteins were measured as an indication of plasma volume changes related to the hay or test feeds. […]
Plasma was deproteinised with an equal volume of perchloric acid and neutralised with KHCO3. […] The method was a consolidation of those by Lund (1974), and, Beutler and Michal (1974), creating a one-step enzymic method applied to a microplate reader using only 20 μl of sample. […]

The nature of series [2]: Plasma ammonia after feeding molassed sugar beet supplemented with L-glutamine (dry-strip analyser). It counts as in vivo, horse. Conditions: glutamine supplementation, 60 mg/kg bwt with mSB. Here is the method: The mSB, hay and water were provided as in Part 1.
Blood samples were drawn through an indwelling jugular catheter into tubes containing lithium heparin (on ice). In Part 1 samples were taken pre and at 0.5, 1, 1.5, 2, 3, 4, 6 and 8 hours post feed. In Parts 2, 3 and 4 samples were taken pre and at 0.25, 0.5, 0.75, 1, 1.5, 2, 3, 4, 6 and 8 hours. Samples were centrifuged, the plasma harvested, divided into aliquots and stored at −80° C.
Total plasma protein content was estimated using a refractometer (Goldberg Refractometer).

As for `NC(=O)CC[C@H](N)C(=O)O` [L-glutamine], the “response (peak concentration and AUC) compared with the peptide” value in series [1] is reported as “greater response”. The entries for the “effect on plasma ammonia concentration” value in series [2] and in series [2] (listed as G) were “unaffected; also recorded: Neither did oral ingestion of glutamine have any effect” and “no significant increase”, respectively.
